# Test results as given in patent US7534897B2 (Shionogi & Co., Ltd., priority 2002, dated 2009).
# Target: T1, CRTH2 (Homo sapiens, UniProt Q9Y5Y4)
# T1 construct: expressed in transfected cells; host or cells: K562 cells (membrane fraction)
# T1 sequence (Q9Y5Y4 1-395): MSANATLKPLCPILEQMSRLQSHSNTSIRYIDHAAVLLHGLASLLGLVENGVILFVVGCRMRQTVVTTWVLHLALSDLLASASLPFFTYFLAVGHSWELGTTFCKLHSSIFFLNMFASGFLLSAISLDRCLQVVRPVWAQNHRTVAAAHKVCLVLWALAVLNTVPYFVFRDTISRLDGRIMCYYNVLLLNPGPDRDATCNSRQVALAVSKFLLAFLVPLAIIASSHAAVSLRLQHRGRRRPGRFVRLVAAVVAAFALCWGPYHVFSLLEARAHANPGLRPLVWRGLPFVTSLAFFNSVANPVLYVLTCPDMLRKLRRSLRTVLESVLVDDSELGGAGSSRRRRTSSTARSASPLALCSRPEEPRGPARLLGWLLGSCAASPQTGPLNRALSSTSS
# Test: Binding activity to CRTH2 ([3H]PGD2 binding assay)
# Conditions: membrane fraction of CRTH2-transfected K562 cells, read-out: CRTH2 inhibitory activity IC50
# Method: Experiment 1 Binding Activity to CRTH2
# The membrane fraction prepared with CRTH2-transfected K562 cells was used for a binding assay. To a binding-reaction solution (50 mM Tris/HCl, pH 7.4, 10 mM MgCl2) the membrane fraction (0.06 mg) and 3 nM [^3H]PGD2 (172 Ci/mmol) were added, and the mixture was reacted at room temperature for 60 min. After the reaction, the mixture was filtered through a glass fiber filter paper and washed several times with cooled physiological saline, then the radioactivity retained on the filter paper was measured. The specific-binding ratio was calculated by subtracting the non-specific binding ratio which is the radioactivity similarly measured in the presence of 10 μM PGD2 from the total binding.
row,IC50,SMILES
1,18 nM,O=C(O)Cn1cc(CCNS(=O)(=O)c2ccc(F)cc2)c2cc(Cl)ccc21 [Ia-32]
2,45 nM,CN(CCc1cn(CC(=O)O)c2ccccc12)S(=O)(=O)c1ccc(F)cc1 [Ia-39]
3,34 nM,Cc1c(CCN(C)S(=O)(=O)c2ccc(F)cc2)c2ccccc2n1CC(=O)O [Ia-41]
4,23 nM,CN(CCc1cn(CC(=O)O)c2ccc(Cl)cc12)S(=O)(=O)c1ccc(F)cc1 [Ia-44]
5,57 nM,CC(C)N(CCc1cn(CC(=O)O)c2ccccc12)S(=O)(=O)c1ccc(F)cc1 [Ia-48]
6,24 nM,CS(=O)(=O)NC(=O)Cn1cc(CCN(Cc2ccccc2)S(=O)(=O)c2ccc(F)cc2)c2ccccc21 [Ia-52]
7,33 nM,O=C(O)Cn1cc(CCN(Cc2ccccc2)S(=O)(=O)c2ccc(F)cc2)c2cc(Cl)ccc21 [Ia-58]
8,45 nM,Cc1ccccc1CN(CCc1cn(CC(=O)O)c2ccccc12)S(=O)(=O)c1ccc(F)cc1 [Ia-61]
9,80 nM,O=C(O)Cn1cc(CCCN(Cc2ccccc2)S(=O)(=O)c2ccc(F)cc2)c2ccccc21 [Ia-85]
10,12 nM,O=C(O)Cn1c2c(c3ccccc31)CC(NS(=O)(=O)c1ccsc1)CC2 (stereo not drawn) [Ib-21]
11,26 nM,O=C(O)Cn1cc(C2CCC(NS(=O)(=O)c3ccc(F)cc3)C2)c2ccccc21 (stereo not drawn) [Ij-1]
12,53 nM,O=C(O)Cn1cc(C2CCC(N(Cc3ccccc3)S(=O)(=O)c3ccc(F)cc3)C2)c2ccccc21 (stereo not drawn) [Ij-3]

# The remaining lines, values behind:
row,SMILES,IC50
1,"O=C(O)Cn1c2c(c3ccccc31)CC(NS(=O)(=O)c1cccs1)CC2 (single isomer, unassigned; (+)) [(+)-Ib-20]",7.9 nM
2,"Cc1ccc(S(=O)(=O)N(C)C2CCc3c(c4ccccc4n3CC(=O)O)C2)cc1 (single isomer, unassigned; (+)) [(+)-Ib-27]",6.2 nM
3,"CN(C1CCc2c(c3ccccc3n2CC(=O)O)C1)S(=O)(=O)c1cccs1 (single isomer, unassigned; (+)) [(+)-Ib-29]",4.9 nM
4,O=C(O)Cn1cc(CCNS(=O)(=O)c2ccc(-c3ccc(F)cc3)cc2)c2ccccc21 [Ia-15],37 nM
5,Cc1c(CCNS(=O)(=O)c2ccc(F)cc2)c2ccccc2n1CC(=O)O [Ia-20],22 nM
6,CN(CCc1cn(CC(=O)O)c2ccc(F)cc12)S(=O)(=O)c1ccc(F)cc1 [Ia-45],19 nM
7,C=CCN(CCc1cn(CC(=O)O)c2ccccc12)S(=O)(=O)c1ccc(F)cc1 [Ia-47],51 nM
8,Cc1c(CCN(Cc2ccccc2)S(=O)(=O)c2ccc(F)cc2)c2ccccc2n1CC(=O)O [Ia-55],42 nM
9,COc1ccc2c(c1)c(CCN(Cc1ccccc1)S(=O)(=O)c1ccc(F)cc1)cn2CC(=O)O [Ia-57],57 nM
10,O=C(O)Cn1cc(CCN(Cc2ccccc2)S(=O)(=O)c2ccc(F)cc2)c2cc(F)ccc21 [Ia-59],23 nM
11,O=C(O)Cn1cc(CCN(Cc2ccc([N+](=O)[O-])cc2)S(=O)(=O)c2ccc(F)cc2)c2ccccc21 [Ia-63],54 nM
12,O=C(O)Cn1cc(CCN(Cc2cccs2)S(=O)(=O)c2ccc(F)cc2)c2ccccc21 [Ia-65],27 nM
13,O=C(O)Cn1cc(CCN(CCc2ccccc2)S(=O)(=O)c2ccc(F)cc2)c2ccccc21 [Ia-66],37 nM
14,CN(C1Cc2c(n(CC(=O)O)c3ccccc23)C1)S(=O)(=O)c1ccc(F)cc1 (stereo not drawn) [Ib-6],55 nM
15,Cc1c(C(C)(C)CNS(=O)(=O)c2ccc(F)cc2)c2ccccc2n1CC(=O)O [If-1],19 nM
16,Cc1c(C(C)CNS(=O)(=O)c2ccc(F)cc2)c2ccccc2n1CC(=O)O (stereo not drawn) [If-4],16 nM
17,CCN(c1ccc2c(c1)c1c(n2CC(=O)O)CCCCC1)S(=O)(=O)c1ccc(F)cc1 [Ig-15],7.5 nM
18,CN(C1CCC(c2cn(CC(=O)O)c3ccccc23)C1)S(=O)(=O)c1ccc(F)cc1 (stereo not drawn) [Ij-2],53 nM
